Assay results reported in patent publication US20040009172A1, “Use of anti-TNFalpha antibodies and another drug” (priority 2002, published 2004).

What was measured:
[1] = test system: patients with rheumatoid arthritis (RA); test: Multicenter, randomized, double-blind, placebo-controlled study of D2E7 in RA patients: efficacy (ACR response); assay type: in vivo, human
Description: (§1) A study was designed and conducted to investigate the safety and efficacy of D2E7 40 mg administered every other week to patients with RA whose disease was not adequately treated with their current anti-rheumatic therapies (including accepted DMARDs, NSAIDs, or steroids); and was a multicenter, randomized, double-blind, placebo-controlled study in which D2E7 was subcutaneously (sc) administered every other week for up to 24 weeks at a dosage of 40 mg to patients with rheumatoid arthritis (RA) whose disease was not adequately treated with their current anti-rheumatic therapies. Anti-rheumatic therapies permitted for use during the study included accepted disease-modifying anti-rheumatic drugs (DMARDs), non-steroidal anti-inflammatory drugs (NSAIDs), or steroids. Despite using anti-rheumatic therapies, patients must have had active disease documented at both the screening and baseline visits. Doses of DMARDs, as well as concomitant prednisone (<10 mg daily) and NSAIDs, were required to be stable for at least 28 days prior to screening. Additionally, patients using azathioprine and/or cyclosporine discontinued these therapies and underwent a 28-day washout period before screening. At the baseline visit, patients were randomized to D2E7 or placebo and this signified the start of the 24-week placebo-controlled period. Patients were examined at Weeks 2, 4, 8, 12, 16, 20 and 24 of the study.
Patients were inadequately treated with their current anti-rheumatic therapies and had active RA, defined as ≧6 swollen joints and ≧9 tender joints. Additionally, patients using glucocorticoids were allowed into the study if the dose was equivalent to ≦10 mg/day prednisone and had remained unchanged for at least 28 days.
D2E7 was supplied in 2-mL glass vials (the concentration of D2E7 in each vial was 25 mg/mL (ie, 40 mg/1.6 mL)), each containing 40 mg D2E7/1.6 mL solution for injection. D2E7 was manufactured and supplied by Ebewe Arzneimittel GmbH, in Unterach, Austria. McKesson, FIBOC Biosciences, in Rockville, Md., USA, packaged, labeled, stored and distributed D2E7 to the investigators at, each site for this study. D2E7 was self-administered as a single sc injection of 40 mg every other week for a period of 24 weeks. The concentration of study drug was 25 mg/mL. Placebo/1.6 mL (citrate-phosphate buffer solution without D2E7) was self-administered as a single sc injection every other week for a period of 24 weeks.
Patients continued to receive their pre-study dose of anti-rheumatic therapies. Anti-rheumatic therapies permitted for use during the study included DMARDs (hydroxychloroquine, leflunomide, methotrexate, parenteral gold, oral gold and sulfasalazine, or any combination of these or other DMARDs), NSAIDs and steroids. Doses of these DMARDs as well as concomitant prednisone (≦10 mg daily) and NSAIDs must have been stable for at least 28 days prior to screening.
Efficacy endpoints included: ACR20 response at Week 24; ACR50 and ACR70 at Week 24; AUC (area under the curve) of ACR20, ACR50 and ACR70 from baseline to Week 24; time to first response for ACR20, ACR50 and ACR70; numeric ACR (ACR-N); change from baseline to Week 24 in components of the ACR response criteria (tender joint count [TJC], swollen joint count [SJC], patient assessment of pain, patient and physician global assessments of disease activity, HAQ and C-reactive protein [CRP]); change from baseline to Week 24 in physical function as measured by SF-36, health utilities index (HUI), functional assessment of chronic illness therapy (FACIT) fatigue scale; Euro-QoL questionnaire; multidimensional assessment of fatigue (MAF) scale; subject summary survey; incidence and time to dose increases in background DMARD and/or steroid therapy; institution of new DMARD therapy for lack of clinical response; rheumatoid factor (RF); and morning stiffness.
Adverse events were summarized by frequency, percentage, as well as the rate per 100 patient-years. […]

[2] = test system: patients with rheumatoid arthritis (RA); test: Multicenter, randomized, double-blind, placebo-controlled study of D2E7 in RA patients: safety (adverse events); assay type: in vivo, human
Description: as §1
D2E7 was supplied in 2-mL glass vials (the concentration of D2E7 in each vial was 25 mg/mL (ie, 40 mg/1.6 mL)), each containing 40 mg D2E7/1.6 mL solution for injection. D2E7 was manufactured and supplied by Ebewe Arzneimittel GmbH, in Unterach, Austria. McKesson, FIBOC Biosciences, in Rockville, Md., USA, packaged, labeled, stored and distributed D2E7 to the investigators at, each site for this study. […]
Adverse events were summarized by frequency, percentage, as well as the rate per 100 patient-years. […] All other efficacy variables were summarized descriptively (statistical characteristics, frequencies, percentages, confidence intervals) and analyzed by exploratory two-sided statistical tests. […]

[3] = Non-responder, full analysis set excluding Site #7, N = 315
[4] = Week 2, full analysis set excluding Site #7, N = 315
[5] = Week 4, full analysis set excluding Site #7, N = 315
[6] = Week 8, full analysis set excluding Site #7, N = 315
[7] = Week 12, full analysis set excluding Site #7, N = 315
[8] = Week 16, full analysis set excluding Site #7, N = 315
[9] = Week 20, full analysis set excluding Site #7, N = 315
[10] = Week 24, full analysis set excluding Site #7, N = 315
[11] = Week 24, subgroup Three or more DMARDs
[12] = Week 24, subgroup concomitant Antimalarial
[13] = Week 24, subgroup concomitant Leflunomide
[14] = Week 24, subgroup concomitant Methotrexate
[15] = Week 24, subgroup concomitant Sulfasalazine
[16] = added to existing DMARD therapies

D2E7: recombinant, neutralizing human anti-hTNFα antibody; VL region SEQ ID NO: 1, VH region SEQ ID NO: 2
ACR50 response, % of patients responding ([1]; LOCF Week 24, N = 315): (30.2) %
ACR50 response, N of patients responding ([1]; LOCF Week 24, N = 315): 95
ACR70 response, % of patients responding ([1]; LOCF Week 24, N = 315): (15.2) %
ACR70 response, N of patients responding ([1]; LOCF Week 24, N = 315): 48
ACR-N Mean ± SD ([1]; LOCF Week 24, N = 315): 21.2 ± 55.3
Time to response ACR20: % of patients, Non-responder [1, 3]: (19.4) %
Time to response ACR20: N of patients, Non-responder [1, 3]: 61
Time to response ACR50: % of patients, Non-responder [1, 3]: (50.8) %
Time to response ACR50: N of patients, Non-responder [1, 3]: 160
Time to response ACR70: % of patients, Non-responder [1, 3]: (73.3) %
Time to response ACR70: N of patients, Non-responder [1, 3]: 231
Time to response ACR20: % of patients responding for the first time [1, 4]: (33.7) %
Time to response ACR20: N of patients responding for the first time [1, 4]: 106
Time to response ACR50: % of patients responding for the first time [1, 4]: (9.8) %
Time to response ACR50: N of patients responding for the first time [1, 4]: 31
Time to response ACR70: % of patients responding for the first time [1, 4]: (2.9) %
Time to response ACR70: N of patients responding for the first time [1, 4]: 9
Time to response ACR20: % of patients responding for the first time [1, 5]: (16.2) %
Time to response ACR20: N of patients responding for the first time [1, 5]: 51
Time to response ACR50: % of patients responding for the first time [1, 5]: (9.8) %
Time to response ACR50: N of patients responding for the first time [1, 5]: 31
Time to response ACR70: % of patients responding for the first time [1, 5]: (3.8) %
Time to response ACR70: N of patients responding for the first time [1, 5]: 12
Time to response ACR20: % of patients responding for the first time [1, 6]: (16.5) %
Time to response ACR20: N of patients responding for the first time [1, 6]: 52
Time to response ACR50: % of patients responding for the first time [1, 6]: (10.8) %
Time to response ACR50: N of patients responding for the first time [1, 6]: 34
Time to response ACR70: % of patients responding for the first time [1, 6]: (3.8) %
Time to response ACR70: N of patients responding for the first time [1, 6]: 12
Time to response ACR20: % of patients responding for the first time [1, 7]: (5.4) %
Time to response ACR20: N of patients responding for the first time [1, 7]: 17
Time to response ACR50: % of patients responding for the first time [1, 7]: (6.3) %
Time to response ACR50: N of patients responding for the first time [1, 7]: 20
Time to response ACR70: % of patients responding for the first time [1, 7]: (5.7) %
Time to response ACR70: N of patients responding for the first time [1, 7]: 18
Time to response ACR20: % of patients responding for the first time [1, 8]: (4.1) %
Time to response ACR20: N of patients responding for the first time [1, 8]: 13
Time to response ACR50: % of patients responding for the first time [1, 8]: (6.3) %
Time to response ACR50: N of patients responding for the first time [1, 8]: 20
Time to response ACR70: % of patients responding for the first time [1, 8]: (5.7) %
Time to response ACR70: N of patients responding for the first time [1, 8]: 18
Time to response ACR20: % of patients responding for the first time [1, 9]: (3.8) %
Time to response ACR20: N of patients responding for the first time [1, 9]: 12
Time to response ACR50: % of patients responding for the first time [1, 9]: (2.9) %
Time to response ACR50: N of patients responding for the first time [1, 9]: 9
Time to response ACR70: % of patients responding for the first time [1, 9]: (2.2) %
Time to response ACR70: N of patients responding for the first time [1, 9]: 7
ACR20 response, % of patients ([1]; Week 24, 40 mg sc every other week added to current anti-rheumatic therapies, N = 315): 53.0%
ACR20 response, N of patients ([1]; Week 24, 40 mg sc every other week, N = 315): 167
ACR50 response, N of patients responding ([1]; Week 24, N = 315): 92
ACR70 response, N of patients responding ([1]; Week 24, N = 315): 47
ACR-N Mean ± SD ([1]; Week 24, N = 315): 20.3 ± 55.2
Time to response ACR20: % of patients responding for the first time [1, 10]: (1.0) %
Time to response ACR20: N of patients responding for the first time [1, 10]: 3
Time to response ACR50: % of patients responding for the first time [1, 10]: (3.2) %
Time to response ACR50: N of patients responding for the first time [1, 10]: 10
Time to response ACR70: % of patients responding for the first time [1, 10]: (2.5) %
Time to response ACR70: N of patients responding for the first time [1, 10]: 8
ACR20 % Response ([1]; Week 24, subgroup No DMARD): 50.0%
ACR50 % ([1]; Week 24, subgroup No DMARD): 27.8%
ACR70 % ([1]; Week 24, subgroup No DMARD): 18.5%
ACR-N Mean ± SD ([1]; Week 24, subgroup No DMARD): 12.8 ± 68.2
ACR20 % Response ([1]; Week 24, subgroup One DMARD): 55.4%
ACR50 % ([1]; Week 24, subgroup One DMARD): 31.0%
ACR70 % ([1]; Week 24, subgroup One DMARD): 16.3%
ACR-N Mean ± SD ([1]; Week 24, subgroup One DMARD): 22.8 ± 56.0
ACR20 % Response ([1]; Week 24, subgroup Other DMARDs): 52.0%
ACR50 % ([1]; Week 24, subgroup Other DMARDs): 24.0%
ACR70 % ([1]; Week 24, subgroup Other DMARDs): 16.0%
ACR-N Mean ± SD ([1]; Week 24, subgroup Other DMARDs): 25.3 ± 33.9
ACR20 % Response [1, 11]: 45.5%
ACR50 % [1, 11]: 18.2%
ACR70 % [1, 11]: 9.1%
ACR-N Mean ± SD [1, 11]: 20.1 ± 37.2
ACR20 % Response ([1]; Week 24, subgroup Two DMARDs): 50.0%
ACR50 % ([1]; Week 24, subgroup Two DMARDs): 27.3%
ACR70 % ([1]; Week 24, subgroup Two DMARDs): 9.1%
ACR-N Mean ± SD ([1]; Week 24, subgroup Two DMARDs): 19.5 ± 42.3
ACR20 % Response [1, 12]: 50.7%
ACR50 % [1, 12]: 29.3%
ACR70 % [1, 12]: 12.0%
ACR-N Mean ± SD [1, 12]: 20.0 ± 45.5
ACR20 % Response [1, 13]: 33.3%
ACR50 % [1, 13]: 14.3%
ACR70 % [1, 13]: 0.0%
ACR-N Mean ± SD [1, 13]: −0.5 ± 77.5
ACR20 % Response [1, 14]: 56.7%
ACR50 % [1, 14]: 30.9%
ACR70 % [1, 14]: 15.2%
ACR-N Mean ± SD [1, 14]: 26.5 ± 42.3
ACR20 % Response [1, 15]: 58.6%
ACR50 % [1, 15]: 34.5%
ACR70 % [1, 15]: 17.2%
ACR-N Mean ± SD [1, 15]: 21.4 ± 53.9
Subgroup analyses: ACR20, ACR50, ACR70, ACR-N and their AUC ([1]; concomitant methotrexate, antimalarial treatments, sulfasalazine, other DMARDs, or 0, 1, 2, or ≧3 DMARDs, vs placebo): greater improvement
Response compared to placebo ([1]; in combination with methotrexate, antimalarial treatments, sulfasalazine, other DMARDs, or 0, 1, 2, or ≧3 DMARDs): higher response compared to placebo
Improvement in RA ([1]; patients inadequately treated with existing DMARD therapies): significant improvement in RA
Time to response and AUC for ACR20, ACR50, ACR70; AUC for ACR-N; Euro-QoL, RF, MAF scale ([1]; vs placebo): improvement in therapeutic response over placebo
Safety ([2]; 40 mg, alone or in combination with other DMARDs): safe
Incidence or profile of adverse events [2, 16]: not associated with any major changes in the incidence or profile of adverse events
Tolerability [2, 16]: generally well-tolerated
